# Laboratory results from patent US20090105172A1, “Stabilized Aptamers to PSMA and Their Use as Prostate Cancer Therapeutics” (priority 2005, published 2009).
# Key:
# [1] = target: T1, ECD PSMA (Homo sapiens, UniProt Q04609); experiment: Dot blot binding assay (nitrocellulose filter) with purified ECD PSMA; settings: A9 minimer, without tRNA
# T1 construct: vector-derived N-terminal linker […]; made in house; host or cells: 293 Freestyle cells, pSecTag2B vector
# Text: Protein Purification of ECD of PSMA: An I.M.A.G.E. clone (5202715) encoding full length recombinant human PSMA was purchased from Open Biosystems (Clone EHS1001-18533, Huntsville, Ala.). PCR was used to amplify the extracellular portion of the full length clone. An oligo with an N-terminal histidine tag was designed to engineer a construct which lacks the transmembrane domain residues 1-44. The his-tagged extracellular domain (ECD) was subcloned into the pSecTag2B expression vector (Invitrogen, Carlsbad, Calif.). The ECD of PSMA was purified in house from transfected 293 Freestyle cells (ATCC, Manassas, Va.). The amino acid sequence of the expressed protein comprising an N-terminal linker sequence of […] followed by eight Histidines is listed below: […] VSDr[…]a[…]r[…]rYV […] (SEQ ID NO 5)
# Dot Blot Binding Analysis. Dot blot binding assays were performed throughout the selections to monitor the protein binding affinity of the pools. For initial pool screening, trace ^32P-labeled pool RNA was combined with PSMA and incubated at room temperature for 30 min in 1×SHMCK buffer pH 7.4 (20 mM Hepes pH 7.4, 120 mM NaCl, 5 mM KCl, 1 mM MgCl2, 1 mM CaCl2) plus 0.1 mg/mL tRNA in a final volume of 30 μl. The mixture was applied to a dot blot apparatus (Schleicher and Schuell Minifold-1 Dot Blot, Acrylic, Keene, N.H.), assembled (from top to bottom) with nitrocellulose, nylon, and gel blot membranes. RNA that is bound to protein is captured on the nitrocellulose filter; whereas the non-protein bound RNA is captured on the nylon filter. […] The Round 9 pool was cloned and screened in a single point dot blot assay using 100 nM PSMA (0 nM PSMA was used as a negative control). Clone transcripts were 5′ end labeled with ^32-P ATP. Likely binders were than assayed for KD determination by the blot assay conditions described directly above, but without tRNA, using an 8 point PSMA titration with a constant RNA concentration. […] Both of the clones screened were unique sequences in the Round 9 selection pool.
# In order to identify the core structural elements required for ARC955 binding to PSMA, the 3′-boundaries of the clone was determined through alkaline hydrolysis. The parent RNA transcript was labeled at the 5′-end with γ-^32P ATP and T4 polynucleotide kinase. Radiolabeled ligands were subjected to partial alkaline hydrolysis and then selectively bound in solution to ECD PSMA (purified in house) at 100 nM before being passed through nitrocellulose filters (Centrex MF 1.5 mL, 0.45 μm, Schleicher & Schuell, Keene N.H.). Retained oligonucleotides were resolved on 8% denaturing polyacrylamide gels. The smallest oligonucleotide bound to PSMA defined the 3′-boundary. On the basis of the boundary experiments as well as visual inspection of predicted folds, truncated constructs were synthesized. Clones were then assayed by dot blot as previously described to determine their KD. […] The binding curve for ARC1091 in the dot blot assay is depicted in FIG. 5A, and the predicted secondary structure of ARC1091 is depicted in FIG. 5B. The KD and maximum % bound for the 3 minimized constructs with the overall highest PSMA affinity, as determined by a dot blot binding assay, are listed in Table 4. For the minimized rGmH aptamers described in Table 5 below, the guanosine triphosphates are 2′-OH and the adenosines triphosphates, cytidine triphosphates and uridine triphosphates are 2′-OMe. Unless noted otherwise, the individual sequences are represented in the 5′ to 3′ orientation. In some embodiments, the invention comprises aptamers with a nucleic acid sequence as described in Table 4 below. In some embodiments, the nucleic acid sequence of an aptamer described in Table 4 below additionally comprises a 3′ cap (e.g., an inverted dT cap), and/or 5′ amine (NH2) modification to facilitate chemical coupling, and/or conjugation to a high molecular weight, non-immunogenic compound (e.g., PEG). […]
# [2] = target: PSMA NAALADase activity (Homo sapiens, UniProt Q04609); experiment: NAALADase inhibition assay; type: biochemical
# Sequence of PSMA NAALADase activity (Q04609 with tags, fused parts or gaps limits assumed): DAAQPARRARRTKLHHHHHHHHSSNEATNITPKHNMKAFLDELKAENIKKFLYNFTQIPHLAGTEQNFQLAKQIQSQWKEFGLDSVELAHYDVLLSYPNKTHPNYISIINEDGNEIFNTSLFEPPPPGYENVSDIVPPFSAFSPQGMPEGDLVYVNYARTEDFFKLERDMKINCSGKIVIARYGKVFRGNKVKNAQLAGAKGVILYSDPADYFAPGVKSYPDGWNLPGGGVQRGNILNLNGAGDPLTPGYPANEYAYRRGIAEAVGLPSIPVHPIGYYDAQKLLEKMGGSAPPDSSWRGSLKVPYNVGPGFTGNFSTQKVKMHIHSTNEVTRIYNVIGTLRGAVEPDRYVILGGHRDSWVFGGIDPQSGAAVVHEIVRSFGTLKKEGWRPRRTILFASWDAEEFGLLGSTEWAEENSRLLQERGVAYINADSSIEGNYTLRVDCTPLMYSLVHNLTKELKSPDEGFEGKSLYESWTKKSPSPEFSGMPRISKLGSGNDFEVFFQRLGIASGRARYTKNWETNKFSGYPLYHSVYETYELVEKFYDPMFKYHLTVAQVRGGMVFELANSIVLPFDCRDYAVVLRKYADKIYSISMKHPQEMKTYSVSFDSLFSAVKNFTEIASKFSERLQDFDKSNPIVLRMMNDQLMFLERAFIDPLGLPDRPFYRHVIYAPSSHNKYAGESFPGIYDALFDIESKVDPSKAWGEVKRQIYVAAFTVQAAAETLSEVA
# Description: These point mutant constructs were assessed for activity in terms of inhibition of PSMA NAALADase activity. The NAALADase assay was performed in 96 well format. PSMA aptamers were serially diluted in 1× reaction buffer (40 mM Tris-HCl, pH 7.4, 0.1 mM ZnSO4, 0.1 mg/in L BSA) in a standard 96 well plate to be tested at a final concentration range from 30 pM to 1 μM. The enzyme was prepared by diluting 30 μL of 100 nM PSMA into 8 mL of reaction buffer, and kept cool on ice. The substrate was prepared by adding 19 μl of NAAG [Glutamate-3,4-^3H], 50.8 Ci/mmol, 19.7 μM (Perkin-Elmer, Wellesley, Mass., NET1082) into 2.2 mL of reaction buffer.
# Following preparation of all reagents, 4 μl of each serially diluted aptamer was added to a separate 96 well plate (the reaction plate). 76 μl of diluted enzyme was added to the corresponding wells containing aptamer. 80 μl of reaction buffer was added to one column of wells to serve as a background control. The diluted substrate and reaction plate were then moved to a room at 37° C. and allowed to equilibrate for 10 minutes. After temperature equilibration, 20 μl of the prepared substrate was added to each well using a 12 channel pipet for a final volume of 100 μl/well, and a final concentration of […] enzyme and 30 nM substrate per well. A column of wells containing enzyme and substrate only was used as a high control. The aptamer/enzyme/substrate reaction was incubated at 37° C. for 15 minutes, and stopped by the addition of 100 μl of quench buffer (100 mM sodium phosphate, pH 7.4, 2 mM EDTA).
# To separate the cleavage products, […] and Glutamate, from the substrate, an AG 1-X8, 200-400 mesh, formate resin (BioRad, Hercules, Calif., # 140-1454) was used. The resin was prepared by forming a 1:1 slurry in H2O, and adding 140 μl per 96 well using a Multiscreen filter plate (Multiscreen, 1.2 μm filter plates (Millipore, Billerica, Mass., # MABVN1250)). […] The plate was sealed and read using a Packard Topcount Microplate Scintillation Counter. […]
# T1 sequence (Q04609 with tags, fused parts or gaps): as the sequence (Q04609 with tags, fused parts or gaps limits assumed) above
substance,measurement,setting,value
"GGAGGAfCfCGAAAAAGAfCfCfUGAfCfUfUfCfUAfUAfCfUAAGfUfCfUAfCGfUfUfCfCfUfCfCA (GGAGGACCGAAAAAGACCUGACUUCUAUACUAAGUCUACGUUCCUCCA; 2'-fluoro at 7, 8, 17, 18, 19, 22, 23, 24, 25, 26, 28, 30, 31, 35, 36, 37, 39, 41, 42, 43, 44, 45, 46, 47, other sugars and backbone not given here) [ARC591, 48-nt minimer of A9]",Kd,[1],3.4 nM
same,IC50,"[2]; read-out: apparent IC50, inhibition of NAALADase activity",6.7 nM
same,activity in the NAALADase inhibition assay,[2]; relative to parent,retained full functional activity
